Assay results taken from US7090846B2 (priority 1999, dated 2006).

Legend:
[1] = test system: transplantable rodent tumors (P-388 lymphoid leukemia, S-180 sarcoma); conditions: mouse, in vivo
Description: The tumor growth inhibitory effect of the polycation bioconjugates was studied on the following transpalatable rodent tumors: • P-388 lymphoid leukemia cells, originated from Cambridge, Mass., USA, were transplanted i.p. and s.c. into animals: BDF1 inbred male mice, weighing 22–24 g, specified pathogen free (SPF) breedings; • S-180 sarcoma, originated from Chester Beatty I., London, were transplanted s.c. into animals: BDFI inbred male mice, weighing 22–24 g, specified pathogen free (SPF) breedings.

[2] = test system: tumor cell cultures (P388, MCF-7, PC3); conditions: in vitro; for inhibition on the cell proliferation: serial dilutions, vs untreated control; for comparison among the conjugates: inhibition on the cell proliferation: ranking among tested conjugates
Text: (§1) Cell Lines Used in the Experiments: • P388 mouse lymphocytic leukemia cell line, originated from Arthur D. Little Inc., Cambridge, Mass., USA, in vitro established in the National Institute of Oncology, Budapest, Hungary (Cancer Treat. Rep. 1986; 70: 279–284); • MCF-7 humane breast cancer cell line, originated from American Type Culture Collection; • PC3 humane prostate cancer cell line, originated from American Type Culture Collection;
Sulforodamine B (SRB) assay: approximately one to two thousand cells were put into each well of the special, small plastic tray (micro-well-plates). The cells were incubated in adequate medium and conditions and after adhering to the surface, were treated with serial dilutions of the different polycation bioconjugates, prepared according to the invention. At the end of the experiment the cells were fixed, stained with SRB, and the optical density, which is in direct proportion to the cell proliferation, was read in a CLS 962 ELISA microplate reader. Relative inhibition of proliferation was calculated by taking the control values as 100 per cent. (Cancer Detection and Prevention, 20(2): 146–152, 1996).
Cell counting method, with Neubauer-type chamber: in suspension cultures of exponentially growing cells, which were in adequate medium and conditions, were treated with serial dilutions of the different polycation bioconjugates, prepared according to the invention, and 24- and 48 hours following the treatment the cells were stained with tripan-blue, the treated and control cells were counted in a modified Neubauer-type hemocytometer chamber. Relative inhibition of proliferation was calculated by taking the control values as 100 per cent.

[3] = test system: MCF-7, or PC3 cells; conditions: tumor cell cultures, in vitro; for inhibition on the colony formation: serial dilutions, vs untreated control; for comparison among the conjugates: inhibition on the colony formation: ranking among tested conjugates
Description: as §1
MCF-7, or PC3 cells were plated into petri dishes, then in adequate medium and conditions, were incubated the cells with serial dilutions of the different polycation bioconjugates, prepared according to the invention. The colonies, consisting minimum 30 cells were then counted and the obtained values of three parallel petri dishes were averaged. Relative cloning efficiency was calculated by taking the control values as 100 per cent. (Cancer Detection and Prevention, 20(2): 146–152, 1996).

Substance | inhibitory effect on transplantable rodent tumors (mean tumor volumes, tumor growth curves) [1] | inhibition on the cell proliferation [2] | inhibition on the colony formation [3] | comparison among the conjugates: inhibition on the cell proliferation [2] | comparison among the conjugates: inhibition on the colony formation [3]
cholesterol-hemisuccinyl-poly-(ε)-L-lysine-hydrogen-bromide | significant inhibitory effect | dose dependent inhibition | dose dependent inhibition |  | 
palmitoyl-poly-(ε)-L-lysine-hydrogen-bromide | significant inhibitory effect | dose dependent inhibition | dose dependent inhibition | most effective inhibition | most effective inhibition
poly-(ε)-L-lysine-cisplatin-hydrogen-bromide |  | dose dependent inhibition | dose dependent inhibition | most effective inhibition | most effective inhibition
